This note sets out measurements from patent US11833137B2, “Substituted chromenones, IRE1 inhibitors, and methods of using same” (The Wistar Institute, priority 2018, dated 2023).

Data set [1] deals with XBP-1s expression, MEC2 cells. Description: XBP-1s immunoblot in MEC2 cells. It counts as cell-based, human. The following applies: 20 μM 16 h, then hydrogen peroxide 4 h. How it is done:
(§1) FIGS. 5A-5J illustrate the finding that installation of a boronate cage cleavable by H2O2 stabilizes the 1,3-dioxane acetal protective group of D-F07 to allow for temporal inhibition of XBP-1s upon contact with H2O2. (FIG. 5A) A scheme showing that installation of a boronate-caged group stabilizes the 1,3-dioxane acetal protective group to allow for H2O2-mediated release of intact D-F07. (FIG. 5B) The fluorescence of BC-D-F07a (2.5 μM in the DMSO/PBS solution (v/v=1:99), Ex=360 nm) increases upon incubation with 0 to 200 μM hydrogen peroxide at room temperature for 1 h. (FIG. 5C) The fluorescence of BC-D-F07b (2.5 μM in the DMSO/PBS solution (v/v=1:99), Ex=360 nm) increases upon incubation with 0 to 2 mM hydrogen peroxide at 37° C. for 1 h. […] I0 was the initial fluorescence intensity of D-F07, BC-D-F07a or BC-D-F07b at 0 h. (FIG. 5E) The levels of hydrogen peroxide produced by 5TGM1, 72-h LPS-stimulated primary CLL, MEC2, and WaC3 cells were measured by Amplex Red with or without the addition of extracellular catalase (500 U/mL). (FIG. 5F) 5TGM1 cells were treated with BC-D-F07a at increasing concentrations for 24 h, lysed, and analyzed for the expression of indicated proteins by immunoblots. […] Cells were lysed and analyzed for the expression of indicated proteins by immunoblots. […] Cells were lysed and analyzed for the expression of indicated proteins by immunoblots. […]
In general terms: Immunoblotting shows a protein as a band on a membrane.

The subject of data set [2] is XBP-1s expression, CD5+ CLL cells from Eμ-TCL1 mice. Nature of the data set: XBP-1s immunoblot in primary CLL cells. It counts as cell-based, mouse. The following applies: LPS-stimulated, 20 μM 16 h, then 0, 50 or 100 μM hydrogen peroxide 4 h. The method, then: as §1
The subject of data set [3] is XBP-1s expression, 5TGM1 cells. Description: XBP-1s immunoblot in 5TGM1 multiple myeloma cells. It counts as cell-based, mouse. The following applies: for suppression of XBP-1s expression, long term: 10 μM for a course of 3 days. The method, then: 5TGM1 mouse multiple myeloma cells, primary mouse B cells, primary mouse Eμ-TCL1 CLL cells, and human CLL cell lines (MEC2 and WaC3) were cultured at 37° C. in a 5% CO2 incubator using RPMI 1640 media (Gibco) supplemented with 10% heat-inactivated FBS, 2 mM L-glutamine, 100 U/mL penicillin G sodium, 1 mM sodium pyruvate, 0.1 mM non-essential amino acids, 100 μg/mL streptomycin sulfate and 0.1 mM β-mercaptoethanol (β-ME).
(§2) Cells were lysed using RIPA buffer (10 mM Tris-HCl, pH 7.4, 150 mM NaCl, 1% NP-40, 0.5% sodium deoxycholate, 0.1% SDS, and 1 mM EDTA) supplemented with protease inhibitors (Roche). Protein concentrations were determined by BCA assays (Pierce).
(§3) Samples were boiled in SDS-PAGE sample buffer (62.5 mM Tris-HCl, pH 6.8, 2% SDS, 10% glycerol, 0.1% bromophenol blue) with β-ME and analyzed by SDS-PAGE. Proteins were transferred to nitrocellulose membranes, blocked in 5% nonfat milk (wt/vol in PBS), and immunoblotted with indicated primary antibodies and appropriate horseradish peroxidase-conjugated secondary antibodies. Immunoblots were developed using Western Lighting Chemiluminescence Reagent (PerkinElmer).
To develop inhibitors with improved potency to target the IRE1/XBP-1 pathway, tricyclic chromenone-based IRE1 RNase inhibitors with different amine group (R^1) were synthesized and compared: allyloxycarbonyl (alloc) in B-H09 (1), —H in C-B06 (2), and —CH3 in C-D06 (3) (FIG. 1A). 5TGM1 multiple myeloma cells were chosen to evaluate inhibitory effects of these inhibitors because they have constitutively activated IRE1/XBP-1 pathways.

The test system of data set [4] is 5TGM1 cells. Nature of the data set: Cell proliferation XTT assay, 5TGM1. It counts as cell-based, mouse. The method, then:
5TGM1 cells were suspended in phenol red-free RPMI media, seeded in 96-well cell culture plates, and treated with indicated IRE1 inhibitors (20 μM, unless indicated otherwise). At indicated time points, cells were spun down and cell proliferation was assessed by XTT assays (Roche) according to the manufacturer's instructions. Briefly, 50 μl XTT labeling reagent, 1 μl electron-coupling reagent, and 100 μl phenol red-free RPMI media were combined and applied to each well of the 96-well plates. Cells were incubated for 4 h in a CO2 incubator to allow for the yellow tetrazolium salt XTT to be cleaved by mitochondrial dehydrogenases of metabolically active cells to form the orange formazan dye, which can be quantified at 492 nm using a BioTek SYNERGY™ NEO2 Multimode Reader.
(Tetrazolium assays rely on reduction of a dye to a coloured formazan, in cell work by metabolically active cells.)

A short description of data set [5]: Fluorescence stability (decomposition) in aqueous solution. It counts as physicochemical. To be noted: aqueous solution, 37° C., 0 to 48 h, versus D-F07. The method, then:
(FIG. 2B) 5TGM1 cells were treated with DMSO or with 20 μM 2, 4, 3, or 7 dissolved in DMSO for 3 days and subjected to XTT assays. Percentages of growth were determined by comparing treated groups with control groups (DMSO). Each data point derived from four independent groups receiving exactly the same treatment was plotted as mean±SD. Results are representative of three independent experiments. […] The values of I/I0 were plotted as a function of time and shown in the inset. I0 was the initial fluorescence intensity of 4 at 0 h. […] The values of I/I0 were plotted as a function of time and shown in the inset. I0 was the initial fluorescence intensity of 5 at 0 h. […] (FIG. 2G) The decomposition rates of 7 and 8 were plotted as a function of time in RPMI media incubated at 37° C. Aliquots were analyzed by HPLC and the peaks integrated.
FIGS. 5A-5J illustrate the finding that installation of a boronate cage cleavable by H2O2 stabilizes the 1,3-dioxane acetal protective group of D-F07 to allow for temporal inhibition of XBP-1s upon contact with H2O2. (FIG. 5A) A scheme showing that installation of a boronate-caged group stabilizes the 1,3-dioxane acetal protective group to allow for H2O2-mediated release of intact D-F07. (FIG. 5B) The fluorescence of BC-D-F07a (2.5 μM in the DMSO/PBS solution (v/v=1:99), Ex=360 nm) increases upon incubation with 0 to 200 μM hydrogen peroxide at room temperature for 1 h. (FIG. 5C) The fluorescence of BC-D-F07b (2.5 μM in the DMSO/PBS solution (v/v=1:99), Ex=360 nm) increases upon incubation with 0 to 2 mM hydrogen peroxide at 37° C. for 1 h. […] I0 was the initial fluorescence intensity of D-F07, BC-D-F07a or BC-D-F07b at 0 h. (FIG. 5E) The levels of hydrogen peroxide produced by 5TGM1, 72-h LPS-stimulated primary CLL, MEC2, and WaC3 cells were measured by Amplex Red with or without the addition of extracellular catalase (500 U/mL). (FIG. 5F) 5TGM1 cells were treated with BC-D-F07a at increasing concentrations for 24 h, lysed, and analyzed for the expression of indicated proteins by immunoblots. (FIG. 5G) CD5+ CLL cells purified from spleens of Eμ-TCL1 mice were stimulated with […], subsequently treated with BC-D-F07a at 20 μM for 16 h, and then incubated with hydrogen peroxide at indicated concentrations for another 4 h. Cells were lysed and analyzed for the expression of indicated proteins by immunoblots. […] Cells were lysed and analyzed for the expression of indicated proteins by immunoblots. […] Percentages of growth were determined by comparing treated groups with control groups (DMSO). […]
UV-vis and fluorescence spectra were carried out on a BioTek SYNERGY™ NEO2 instrument (96 well plate).

For data set [6], the system named is MEC2 cells. Nature of the data set: Cell proliferation XTT assay, MEC2. It counts as cell-based, human.
Data set [7] deals with XBP-1s expression, LPS-stimulated primary mouse B cells. Nature of the data set: XBP-1s immunoblot in LPS-stimulated primary B cells. It counts as cell-based. To be noted: 2.5 or 5 μM for 2 h. The method, then:
FIG. 8 illustrates chemical structures of 6, 4, 7, 8, and 9. Primary B cells purified from spleens of wild-type mice were stimulated with LPS for 72 h, subsequently treated with indicated inhibitors at 2.5 or 5 μM for 2 h, lysed, and analyzed for the expression of indicated proteins by immunoblots.
as §2, §3
LPS-stimulated primary mouse B cells were similarly treated with the same inhibitors at 2.5 or 5 μM for 2 h. […] HPLC degradation experiments confirmed that this was indeed the case (FIG. 2G).

The nature of data set [8]: Compound degradation HPLC assay. It counts as physicochemical. To be noted: RPMI media, 37° C. How it is done:
A 20 mM DMSO stock solution of analyte compounds (7, 8, D-F07, PC-D-F07 and TC-D-F07) were diluted to 400 μM with PBS, pH 7.4, or to 800 μM with RMPI plus 10% FBS culture media (experiments with TC-D-F07 were performed using RPMI without FBS). After incubation at 37° C., aliquots at various time points were injected onto an analytical HPLC instrument and the peaks integrated (UV monitored at 220 nm). Intact compound relative to t=0 was plotted as a function of time.

The nature of data set [9]: Solubility in organic solvent (DMSO). It counts as physicochemical. The following applies: such as DMSO.
Data set [10] in a line: In vivo pharmacokinetics, serum fluorescence. The following applies: single intraperitoneal injection of 58 mg/kg D-F07. Further details: species or system Eμ-TCL1 mouse. The method, then:
In vivo pharmacokinetics studies were carried out by intraperitoneally injecting 58 mg/kg D-F07 (347.36 Daltons) or 96 mg/kg TC-D-F07 (577.52 Daltons) into each Eμ-TCL1 mouse to achieve equivalent molar concentrations in the sera. Blood was collected via submandibular bleeding into an Eppendorf tube at 0.25-, 0.5-, 1-, and 1.5-h time points after a single injection. Blood samples were stored at room temperature for 5 min, placed on wet ice for 5 min, and centrifuged at 15,000 rpm/min for 5 min to obtain sera. D-F07 in sera was quantified by measuring the fluorescence intensity using a BioTek SYNERGY™ NEO2 Multimode Reader (Ex/Em: 350/456 nm). Each fluorescent reading value was adjusted by subtracting the background from serum samples without D-F07. D-F07 concentrations were calculated by fitting individual data points in a linear standard equation, y=bx+c. The D-F07 standard curve was created by measuring the fluorescence intensity in serum samples containing serially diluted D-F07. Data derived from three mice receiving the same treatment were plotted as means±SEM.

Data set [11] deals with WaC3 cells. Description: Cell proliferation XTT assay, WaC3. It counts as cell-based, human. The following applies: 20 μM for a course of 3 days.

Structures are written as SMILES. Entries after “also recorded” stand apart in the source; their conditions may differ.

For `COc1cc2c3c(c(=O)oc2c(C2OCCCO2)c1OCc1ccc(B2OC(C)(C)C(C)(C)O2)cc1)CN(C)CC3` [BC-D-F07a, 7-(1,3-dioxan-2-yl)-9-methoxy-3-methyl-8-((4-(4,4,5,5-tetramethyl-1,3,2-dioxaborolan-2-yl)benzyl)oxy)-1,2,3,4-tetrahydro-5H-chromeno[3,4-c]pyridin-5-one], the “suppression of XBP-1s” value is listed as “more efficient suppression of XBP-1s” in data set [1] and “dose-dependent suppression of XBP-1s” in data set [3] (increasing concentrations, 24 h). In [2], the “suppression of XBP-1s expression” value is reported as “suppress the expression of XBP-1s”. Further, the “growth suppression (XTT)” value in data set [4] (20 μM for 2 days) is “could not efficiently oxidize BC-D-F07a, inhibit XBP-1s, or suppress cell growth”. For the same molecule, in [5], the “hydrolysis of 1,3-dioxane acetal by fluorescence decay” value was “stabilized the 1,3-dioxane acetal protecting group”. For the same molecule, the “growth inhibition (XTT)” value in data set [6] (20 μM for 2 days) is on record as “less capable than D-F07 in inhibiting growth of MEC2 cells”.

Consider `CC(=O)N/N=C/c1c(O)ccc2c3c(c(=O)oc12)CN(C)CC3` [Compound 8, (E)-N′-((8-hydroxy-3-methyl-5-oxo-1,3,4,5-tetrahydro-2H-chromeno[3,4-c]pyridin-7-yl)methylene)acetohydrazide], for which the “inhibition of XBP-1s expression, short term” value in [3] (2.5 μM for 1, 2 or 4 h) is “rapidly inhibited XBP-1s; also recorded: effectively inhibit the expression of XBP-1s for longer than 4 h; also recorded: inhibited the expression of XBP-1s more rapidly than 7”. Moreover, the “suppression of XBP-1s expression, long term” value (from here on “suppression … long term”) in data set [3] is “lost its inhibitory effect after treatment for 2 days”. In addition, the “suppression of XBP-1s expression” value in data set [7] is reported as “rapidly suppressed the expression of XBP-1s”. Moreover, in data set [8], the “hydrolysis rate (HPLC degradation)” value was “faster hydrolysis relative to 7”.

Consider `COc1cc2c3c(c(=O)oc2c(C2OCCCO2)c1O)CNCC3` [Compound 11, 7-(1,3-dioxan-2-yl)-8-hydroxy-9-methoxy-1,2,3,4-tetrahydro-5H-chromeno[3,4-c]pyridin-5-one], for which the “solubility relative to 4” value in data set [9] was “at least 16 times less soluble”. Further, the “suppression … long term” value in data set [3] is recorded as “more potent than 4 in suppressing XBP-1s expression; also recorded: less potent than D-F07 in suppressing the expression of XBP-1s”.

Regarding `COc1cc2c3c(c(=O)oc2c(C2OCCCO2)c1O)CN(C)CC3` [D-F07, 7-(1,3-dioxan-2-yl)-8-hydroxy-9-methoxy-3-methyl-1,2,3,4-tetrahydro-5H-chromeno[3,4-c]pyridin-5-one], the “suppression of XBP-1s after removal of compound from media” value in data set [3] (10 μM 4 h, washed, UV 10 min, 8 h culture) is reported as “failed to suppress XBP-1s continuously”. For the same molecule, the “suppression … long term” value in data set [3] was “better long-term efficacy in suppressing the expression of XBP-1s than 7 and 10”. Also, in data set [3] (summary statement), the “overall comparison of inhibition of IRE-1 / XBP-1s expression in whole cells” value is reported as “most potent effect in inhibiting the expression of XBP-1s in whole cells”. In data set [4] (20 μM for a course of 3 days), the “growth inhibition / cytotoxicity (XTT)” value was “higher cytotoxicity than 3 and 7”. The peak serum concentration in [10] worked out at 10203 ng/mL. The “growth suppression (XTT)” value in [11] was “initially more potent than 7 and 8 in suppressing WaC3 cell growth; also recorded: suppressed WaC3 cell growth potently”. Further, in data set [6] (indicated concentrations, 24 h), the “cytotoxicity / growth inhibition (XTT)” value was “not cytotoxic to MEC2 cells”.
